Reference: ChEMBL document CHEMBL1201862, “PubChem BioAssay data set” (2004)
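Results reflect a 48-hour exposure of cells in 96-well plates to compound at five concentrations. GI50 is the concentration that inhibits growth by half.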 Activity calls are given as the source filed them. Rule as the data show it: active = GI50 up to about 1.1 µM and inactive = higher.

Assays:
Test in all cases: growth of human tumour cells (NCI), 48 h
SW-620 = tested on: SW-620
TK-10 = tested on: TK-10
HCT-15 = tested on: HCT-15
SK-OV-3 = tested on: SK-OV-3
SNB-75 = tested on: SNB-75
A549 = tested on: A549
SK-MEL-2 = tested on: SK-MEL-2
NCI-H23 = tested on: NCI-H23
MOLT-4 = tested on: MOLT-4
HOP-62 = tested on: HOP-62
HL-60 = tested on: HL-60
OVCAR-8 = tested on: OVCAR-8
M14 = tested on: M14
SN12C = tested on: SN12C
OVCAR-3 = tested on: OVCAR-3
EKVX = tested on: EKVX
ACHN = tested on: ACHN
HCT-116 = tested on: HCT-116
K562 = tested on: K562
KM12 = tested on: KM12

Structure (SMILES): CCOC(=O)Cc1cc(OC)c(OC)cc1/C(Cl)=C(\C=O)c1ccc(OC)c(OC)c1
- GI50 (SW-620): 22.9 µM (inactive)
- GI50 (TK-10): 26 µM (inactive)
- GI50 (HCT-15): 17.5 µM
- GI50 (SK-OV-3): 37.1 µM (inactive)
- GI50 (SNB-75): 32.1 µM (inactive)
- GI50 (A549): 16.9 µM (inactive)
- GI50 (SK-MEL-2): 19.7 µM (inactive)
- GI50 (NCI-H23): 19.6 µM (inactive)
- GI50 (MOLT-4): 16.9 µM (inactive)
- GI50 (HOP-62): 9.35 µM (inactive)
- GI50 (HL-60): 17.3 µM (inactive)
- GI50 (OVCAR-8): 25.5 µM (inactive)
- GI50 (M14): 16.1 µM (inactive)
- GI50 (SN12C): 15.2 µM (inactive)
- GI50 (OVCAR-3): 13.8 µM (inactive)
- GI50 (EKVX): 22.1 µM (inactive)
- GI50 (ACHN): 20.6 µM (inactive)
- GI50 (HCT-116): 14.4 µM (inactive)
- GI50 (K562): 17.2 µM (inactive)

Structure (SMILES): CC1C2CC=CC(=O)[C@@]2(C)CCC12OCCO2 (some centres undefined)
- GI50 (SW-620): > 100 µM (inactive)
- GI50 (TK-10): > 100 µM (inactive)
- GI50 (SK-OV-3): > 100 µM (inactive)
- GI50 (SNB-75): 97.3 µM (inactive)
- GI50 (A549): > 100 µM (inactive)
- GI50 (SK-MEL-2): > 100 µM (inactive)
- GI50 (NCI-H23): > 100 µM (inactive)
- GI50 (MOLT-4): > 100 µM (inactive)
- GI50 (HOP-62): > 100 µM (inactive)
- GI50 (HL-60): > 10 µM (inactive)
- GI50 (OVCAR-8): > 100 µM (inactive)
- GI50 (M14): 97.1 µM (inactive)
- GI50 (KM12): > 100 µM (inactive)
- GI50 (SN12C): > 100 µM (inactive)
- GI50 (OVCAR-3): > 100 µM (inactive)
- GI50 (EKVX): > 100 µM (inactive)
- GI50 (ACHN): > 100 µM (inactive)
- GI50 (HCT-116): > 100 µM (inactive)
- GI50 (K562): > 100 µM (inactive)

Structure (SMILES): Cc1ccc(Nc2nc3ccccc3c(=O)n2N)cc1
- GI50 (SW-620): > 100 µM (inactive)
- GI50 (TK-10): > 100 µM (inactive)
- GI50 (HCT-15): > 100 µM
- GI50 (SK-OV-3): > 100 µM (inactive)
- GI50 (SNB-75): 75 µM (inactive)
- GI50 (A549): > 100 µM (inactive)
- GI50 (SK-MEL-2): > 100 µM (inactive)
- GI50 (NCI-H23): > 100 µM (inactive)
- GI50 (MOLT-4): > 100 µM (inactive)
- GI50 (HOP-62): > 100 µM (inactive)
- GI50 (HL-60): > 100 µM (inactive)
- GI50 (OVCAR-8): > 100 µM (inactive)
- GI50 (M14): > 100 µM (inactive)
- GI50 (KM12): > 100 µM (inactive)
- GI50 (SN12C): > 100 µM (inactive)
- GI50 (OVCAR-3): > 100 µM (inactive)
- GI50 (EKVX): > 100 µM (inactive)
- GI50 (ACHN): > 100 µM (inactive)
- GI50 (HCT-116): > 100 µM (inactive)
- GI50 (K562): > 100 µM (inactive)

Structure (SMILES): CC1=Nc2c(N)nc(N)nc2N(C)C1
- GI50 (SW-620): > 100 µM (inactive)
- GI50 (TK-10): > 100 µM (inactive)
- GI50 (HCT-15): > 100 µM
- GI50 (SK-OV-3): > 100 µM (inactive)
- GI50 (SNB-75): > 100 µM (inactive)
- GI50 (SK-MEL-2): > 100 µM (inactive)
- GI50 (NCI-H23): > 100 µM (inactive)
- GI50 (MOLT-4): > 100 µM (inactive)
- GI50 (HOP-62): > 100 µM (inactive)
- GI50 (HL-60): > 100 µM (inactive)
- GI50 (OVCAR-8): > 100 µM (inactive)
- GI50 (M14): > 100 µM (inactive)
- GI50 (KM12): > 100 µM (inactive)
- GI50 (SN12C): > 100 µM (inactive)
- GI50 (OVCAR-3): > 100 µM (inactive)
- GI50 (EKVX): > 100 µM (inactive)
- GI50 (ACHN): > 100 µM (inactive)
- GI50 (K562): > 100 µM (inactive)

Structure (SMILES): CC1C(=O)C(C)C(c2ccco2)N(N=O)C1c1ccco1 (centres undefined)
- GI50 (SW-620): > 100 µM (inactive)
- GI50 (HCT-15): > 100 µM
- GI50 (SK-OV-3): > 100 µM (inactive)
- GI50 (SNB-75): > 82.8 µM (inactive)
- GI50 (A549): > 100 µM (inactive)
- GI50 (SK-MEL-2): > 100 µM (inactive)
- GI50 (NCI-H23): > 100 µM (inactive)
- GI50 (MOLT-4): > 100 µM (inactive)
- GI50 (HOP-62): > 100 µM (inactive)
- GI50 (HL-60): > 100 µM (inactive)
- GI50 (OVCAR-8): > 100 µM (inactive)
- GI50 (KM12): > 100 µM (inactive)
- GI50 (SN12C): > 100 µM (inactive)
- GI50 (OVCAR-3): > 100 µM (inactive)
- GI50 (EKVX): > 100 µM (inactive)
- GI50 (HCT-116): > 100 µM (inactive)
- GI50 (K562): > 100 µM (inactive)

Structure (SMILES): CC1=C2C(O)C(C(C)C(=O)N(C)C)CCC2(C)C=CC1=O (centres undefined)
- GI50 (SW-620): > 100 µM (inactive)
- GI50 (HCT-15): > 100 µM
- GI50 (SK-OV-3): > 100 µM (inactive)
- GI50 (SNB-75): > 100 µM (inactive)
- GI50 (A549): > 100 µM (inactive)
- GI50 (SK-MEL-2): > 100 µM (inactive)
- GI50 (NCI-H23): > 100 µM (inactive)
- GI50 (MOLT-4): > 100 µM (inactive)
- GI50 (HOP-62): > 100 µM (inactive)
- GI50 (HL-60): > 100 µM (inactive)
- GI50 (OVCAR-8): > 100 µM (inactive)
- GI50 (KM12): > 100 µM (inactive)
- GI50 (SN12C): > 100 µM (inactive)
- GI50 (OVCAR-3): > 100 µM (inactive)
- GI50 (EKVX): > 100 µM (inactive)
- GI50 (HCT-116): > 100 µM (inactive)
- GI50 (K562): > 100 µM (inactive)

Structure (SMILES): CC(Sc1ccccc1)C(CO)(CO)[N+](=O)[O-] (centres undefined)
- GI50 (SW-620): 14.4 µM (inactive)
- GI50 (TK-10): 18.9 µM (inactive)
- GI50 (HCT-15): 11.5 µM
- GI50 (SK-OV-3): 22.2 µM (inactive)
- GI50 (SNB-75): 20.5 µM (inactive)
- GI50 (A549): 19.8 µM (inactive)
- GI50 (SK-MEL-2): 18.2 µM (inactive)
- GI50 (NCI-H23): 16.8 µM (inactive)
- GI50 (MOLT-4): 3.64 µM (inactive)
- GI50 (HOP-62): 18.2 µM (inactive)
- GI50 (HL-60): 3.58 µM (inactive)
- GI50 (OVCAR-8): 14.8 µM (inactive)
- GI50 (M14): 16.9 µM (inactive)
- GI50 (SN12C): 16.8 µM (inactive)
- GI50 (OVCAR-3): 15.2 µM (inactive)
- GI50 (EKVX): 18.2 µM (inactive)
- GI50 (ACHN): 16.9 µM (inactive)
- GI50 (HCT-116): 17.8 µM (inactive)
- GI50 (K562): 11.2 µM (inactive)

Structure (SMILES): CCOC(=O)NC(Nc1ncccn1)(C(F)(F)F)C(F)(F)F
- GI50 (TK-10): > 100 µM (inactive)
- GI50 (HCT-15): > 100 µM
- GI50 (SK-OV-3): > 100 µM (inactive)
- GI50 (SNB-75): > 100 µM (inactive)
- GI50 (SK-MEL-2): > 100 µM (inactive)
- GI50 (NCI-H23): > 100 µM (inactive)
- GI50 (MOLT-4): > 100 µM (inactive)
- GI50 (HOP-62): > 100 µM (inactive)
- GI50 (HL-60): > 100 µM (inactive)
- GI50 (M14): > 100 µM (inactive)
- GI50 (KM12): > 100 µM (inactive)
- GI50 (SN12C): > 100 µM (inactive)
- GI50 (OVCAR-3): > 100 µM (inactive)
- GI50 (EKVX): > 100 µM (inactive)
- GI50 (ACHN): > 100 µM (inactive)
- GI50 (HCT-116): > 100 µM (inactive)
- GI50 (K562): > 100 µM (inactive)

Structure (SMILES): O=c1c2cc(O)c(O)cc2oc2cc(O)c(C3OC(CO)C(O)C(O)C3O)c(O)c12 (centres undefined)
- GI50 (SW-620): > 100 µM (inactive)
- GI50 (TK-10): > 100 µM (inactive)
- GI50 (HCT-15): > 100 µM
- GI50 (SK-OV-3): > 100 µM (inactive)
- GI50 (SNB-75): > 100 µM (inactive)
- GI50 (A549): > 100 µM (inactive)
- GI50 (SK-MEL-2): > 100 µM (inactive)
- GI50 (NCI-H23): > 100 µM (inactive)
- GI50 (MOLT-4): > 100 µM (inactive)
- GI50 (HOP-62): > 100 µM (inactive)
- GI50 (HL-60): > 100 µM (inactive)
- GI50 (OVCAR-8): > 100 µM (inactive)
- GI50 (M14): > 100 µM (inactive)
- GI50 (KM12): > 100 µM (inactive)
- GI50 (OVCAR-3): > 100 µM (inactive)
- GI50 (EKVX): > 100 µM (inactive)
- GI50 (ACHN): > 100 µM (inactive)
- GI50 (HCT-116): > 100 µM (inactive)
- GI50 (K562): > 100 µM (inactive)

Structure (SMILES): Cc1nc(O)nc(O)c1/C=C/C(=O)O
- GI50 (SW-620): > 1000 µM (inactive)
- GI50 (HCT-15): > 1000 µM
- GI50 (SK-OV-3): > 1000 µM (inactive)
- GI50 (SNB-75): > 1000 µM (inactive)
- GI50 (A549): > 1000 µM (inactive)
- GI50 (SK-MEL-2): > 1000 µM (inactive)
- GI50 (NCI-H23): > 1000 µM (inactive)
- GI50 (MOLT-4): > 1000 µM (inactive)
- GI50 (HOP-62): > 1000 µM (inactive)
- GI50 (HL-60): > 1000 µM (inactive)
- GI50 (OVCAR-8): > 1000 µM (inactive)
- GI50 (KM12): > 1000 µM (inactive)
- GI50 (SN12C): > 1000 µM (inactive)
- GI50 (OVCAR-3): > 1000 µM (inactive)
- GI50 (EKVX): > 1000 µM (inactive)
- GI50 (HCT-116): > 1000 µM (inactive)
- GI50 (K562): > 1000 µM (inactive)

Structure (SMILES): Cc1cc(NC(=S)Nc2ccccc2)c(NC(=S)Nc2ccccc2)cc1C
- GI50 (SW-620): 11.6 µM (inactive)
- GI50 (HCT-15): 13.8 µM
- GI50 (SK-OV-3): 35 µM (inactive)
- GI50 (SNB-75): 27 µM (inactive)
- GI50 (A549): 23.3 µM (inactive)
- GI50 (SK-MEL-2): 16.9 µM (inactive)
- GI50 (NCI-H23): 37.2 µM (inactive)
- GI50 (MOLT-4): 12.8 µM (inactive)
- GI50 (HOP-62): 15.5 µM (inactive)
- GI50 (HL-60): 1.9 µM (inactive)
- GI50 (OVCAR-8): 40.1 µM (inactive)
- GI50 (KM12): 5.11 µM (inactive)
- GI50 (SN12C): 40.4 µM (inactive)
- GI50 (OVCAR-3): 21.1 µM (inactive)
- GI50 (EKVX): 39.3 µM (inactive)
- GI50 (HCT-116): 14.3 µM (inactive)
- GI50 (K562): 9.44 µM (inactive)
